# According to patent US20100331348A1, “TROPANE DERIVATIVES USEFUL AS PESTICIDES” (SYNGENTA CROP PROTECTION, INC., priority 2007, published 2010):
# Like-named read-outs stand apart in the source and are kept apart here.
# Legend:
# Phytophthora infestans = experiment: whole plant or invertebrate; assay type: in vivo; details: foliar, 96 h, read-out: control of fungal infection, Phytophthora infestans
# Plasmopara viticola = Plasmopara viticola (downy mildew of grapevine) leaf disk assay; assay type: in vivo; details: foliar, 168 h, preventive, seven days after inoculation, read-out: control of fungal infection, Plasmopara viticola
# [1] = system: Erysiphe graminis f.sp. tritici; experiment: Erysiphe graminis f.sp. tritici (wheat powdery mildew) leaf disk assay; assay type: in vivo; details: Blumeria graminis, foliar, 96 h, preventive, four days after inoculation, read-out: control of fungal infection, Erysiphe graminis fsp. tritici
# [2] = system: Puccinia recondita f.sp. tritici; experiment: Puccinia recondita f.sp. tritici (wheat brown rust) leaf disk assay; assay type: in vivo; details: foliar, 216 h, preventive, nine days after inoculation, read-out: control of fungal infection, Puccinia recondita f.sp. tritici
# Aedes aegypti = Aedes aegypti (Yellow fever mosquito) larvae test; assay type: in vivo; details: 48 h
# Pyricularia oryzae = experiment: whole plant or invertebrate; assay type: in vivo; details: foliar, 96 h
# Plutella xylostella = Plutella xylostella (Diamond back moth) artificial diet test; details: 120 h, read-out: control of Plutella xylostella
# [3] = read-out: control of fungal infection, Pyricularia oryzae (at least 60% list)
# [4] = read-out: control of fungal infection, Pyricularia oryzae (at least 80% list)
SMILES,melting point [°C],pest or weed control at 200 ppm [1] [%],pest or weed control at 200 ppm [2] [%],also measured
FC(F)(F)c1ccnc(OC2C[C@H]3CC[C@@H](C2)N3c2ncnc3ccsc23)c1 (stereo partly drawn),211,–,–,–
Cc1nc(OC2C[C@H]3CC[C@@H](C2)N3c2ncnc3sccc23)cc(N(C)C)n1 (stereo partly drawn) [Example 1.53],–,–,–,pest or weed control at 200 ppm (Phytophthora infestans): ≥ 80%; pest or weed control at 200 ppm (Plasmopara viticola): ≥ 80%
N#Cc1sc(N2[C@@H]3CC[C@H]2CC(Oc2ccc(C(F)(F)F)cn2)C3)nc1C(F)(F)F (stereo partly drawn),135,–,–,–
N#Cc1sc(N2[C@@H]3CC[C@H]2CC(Oc2cccc(C(F)(F)F)n2)C3)nc1C(F)(F)F (stereo partly drawn),147,–,–,–
Cc1nsc(N2[C@@H]3CC[C@H]2CC(Oc2ccc(C(F)(F)F)cn2)C3)c1Cl (stereo partly drawn) [Example 2.199],46,≥ 80,–,–
O=C1c2ccccc2C(=O)N1OC1C[C@H]2CC[C@@H](C1)N2c1ncnc2sccc12 (stereo partly drawn) [1.73],243,–,–,–
CCc1ncnc(N2C3CCC2CC(=CC(=O)O)C3)c1Cl,162,–,–,–
CC(=O)NC1C[C@H]2CC[C@@H](C1)N2c1ncnc2sccc12 (stereo partly drawn),196,–,–,–
CCc1ncnc(N2C3CCC2CC(=NO)C3)c1Cl,73,–,–,–
FC(F)(F)c1csc(CC2CC3CCC(C2)N3c2ncnc3sccc23)n1 (stereo not drawn) [Example 7.18],–,–,≥ 80,pest or weed control at 2 ppm (Aedes aegypti): ≥ 80%; pest or weed control at 200 ppm (Plasmopara viticola): ≥ 80%; pest or weed control at 200 ppm (Pyricularia oryzae; [3]): ≥ 60%; pest or weed control at 200 ppm (Pyricularia oryzae; [4]): ≥ 80%
c1ccc(C2COC3(CC4CCC(C3)N4c3ncnc4sccc34)O2)cc1 (stereo not drawn) [Example 6.7],–,≥ 80,≥ 80,pest or weed control at 2 ppm (Aedes aegypti): ≥ 80%; pest or weed control at 200 ppm (Plasmopara viticola): ≥ 80%; pest or weed control at 200 ppm (Pyricularia oryzae; [3]): ≥ 60%; pest or weed control at 200 ppm (Pyricularia oryzae; [4]): ≥ 80%
Cn1nc(C(F)(F)F)cc1C(=O)N1[C@@H]2CC[C@H]1CC(Oc1cc(C(F)(F)F)ccn1)C2 (stereo partly drawn) [Example 2.217],122,≥ 80,–,–
O=C(NC1C[C@H]2CC[C@@H](C1)N2c1ncnc2sccc12)c1cccnc1 (stereo partly drawn),170,–,–,–
Cc1noc2ncnc(N3[C@@H]4CC[C@H]3CC(Oc3ccc(C(F)(F)F)cn3)C4)c12 (stereo partly drawn),238,–,–,–
N#Cc1c(Cl)nsc1N1[C@@H]2CC[C@H]1CC(Oc1ccc(C(F)(F)F)cn1)C2 (stereo partly drawn),157,–,–,–
Cc1nn(C)c2nccc(N3[C@@H]4CC[C@H]3CC(Oc3nc(C(F)(F)F)cs3)C4)c12 (stereo partly drawn) [Example 2.107],184,≥ 80,–,–
Fc1cccc(OCC=C2CC3CCC(C2)N3c2ncnc3sccc23)c1 [Example 3.38],–,–,≥ 80,pest or weed control at 200 ppm (Plutella xylostella): ≥ 80%; pest or weed control at 2 ppm (Aedes aegypti): ≥ 80%; pest or weed control at 200 ppm (Plasmopara viticola): ≥ 80%; pest or weed control at 200 ppm (Pyricularia oryzae; [3]): ≥ 60%; pest or weed control at 200 ppm (Pyricularia oryzae; [4]): ≥ 80%
CCc1ncnc(N2[C@@H]3CC[C@H]2CC(O)C3)c1Cl (stereo partly drawn),104,–,–,–
O=C(O)CC1CC2CCC(C1)N2c1ncnc2sccc12 (stereo not drawn),181,–,–,–
Cc1cccc(CON=C2CC3CCC(C2)N3c2ncnc3sccc23)c1 [Example 5.157],–,≥ 80,≥ 80,pest or weed control at 200 ppm (Phytophthora infestans): ≥ 80%; pest or weed control at 200 ppm (Plasmopara viticola): ≥ 80%; pest or weed control at 200 ppm (Pyricularia oryzae; [3]): ≥ 60%
Clc1ccc(CON=C2CC3CCC(C2)N3c2ncnc3sccc23)cc1 [Example 5.142],–,≥ 80,≥ 80,pest or weed control at 200 ppm (Plutella xylostella): ≥ 80%; pest or weed control at 2 ppm (Aedes aegypti): ≥ 80%; pest or weed control at 200 ppm (Plasmopara viticola): ≥ 80%; pest or weed control at 200 ppm (Pyricularia oryzae; [3]): ≥ 60%
CCc1ncnc(N2C3CCC2CC(=CC#N)C3)c1Cl [Example 3.1],73,–,≥ 80,–
Cc1nsc(N2[C@@H]3CC[C@H]2CC(Oc2ccc(C(F)(F)F)cn2)C3)n1 (stereo partly drawn) [Example 2.204],169,–,≥ 80,–
CCc1ncnc(N2C3CCC2CC(CC(N)=S)C3)c1Cl (stereo not drawn),160,–,–,–
OC1(CC#Cc2ccccc2)CC2CCC(C1)N2c1ncnc2sccc12 (stereo not drawn) [Example 7.15],173,–,≥ 80,–
CCc1ccc(CON=C2CC3CCC(C2)N3c2ncnc(CC)c2Cl)cc1 [Example 5.17],–,≥ 80,≥ 80,pest or weed control at 200 ppm (Phytophthora infestans): ≥ 80%; pest or weed control at 200 ppm (Plutella xylostella): ≥ 80%; pest or weed control at 2 ppm (Aedes aegypti): ≥ 80%; pest or weed control at 200 ppm (Plasmopara viticola): ≥ 80%
Cc1nn(C)c2nccc(N3C4CCC3CC(=NOc3ncc(C(F)(F)F)cc3Cl)C4)c12 [Example 5.261],153,≥ 80,–,–
COc1cc(C(C)=O)ccc1OC1C[C@H]2CC[C@@H](C1)N2c1ncnc2sccc12 (stereo partly drawn),171,–,–,–

SMILES,melting point [°C],pest or weed control at 200 ppm [1] [%],pest or weed control at 200 ppm [2] [%],also measured
Clc1ccc(CON=C2CC3CCC(C2)N3c2ncnc3sccc23)cc1Cl [Example 5.169],–,≥ 80,≥ 80,pest or weed control at 200 ppm (Plutella xylostella): ≥ 80%; pest or weed control at 200 ppm (Plasmopara viticola): ≥ 80%; pest or weed control at 200 ppm (Pyricularia oryzae; [3]): ≥ 60%; pest or weed control at 200 ppm (Pyricularia oryzae; [4]): ≥ 80%
Clc1ccc(OC2C[C@H]3CC[C@@H](C2)N3c2ncnc3sccc23)cc1 (stereo partly drawn),184,–,–,–
FC(F)(F)c1ccc(OC2C[C@H]3CC[C@@H](C2)N3c2ccnc3cc(Cl)ccc23)nc1 (stereo partly drawn),107,–,–,–
Cc1nn(C)c2nccc(N3C4CCC3CC(=NO)C4)c12,201,–,–,–
CCc1ncnc(N2C3CCC2CC(CC(N)=O)C3)c1Cl (stereo not drawn),101,–,–,–
Clc1ccc(-c2csc(CC3CC4CCC(C3)N4c3ncnc4sccc34)n2)cc1 (stereo not drawn) [Example 7.19],–,–,–,pest or weed control at 200 ppm (Plutella xylostella): ≥ 80%; pest or weed control at 2 ppm (Aedes aegypti): ≥ 80%; pest or weed control at 200 ppm (Plasmopara viticola): ≥ 80%
CCc1ncnc(N2C3CCC2CC(=NOCc2ccc(Br)cc2)C3)c1Cl [Example 5.19],–,≥ 80,≥ 80,pest or weed control at 200 ppm (Phytophthora infestans): ≥ 80%; pest or weed control at 200 ppm (Plutella xylostella): ≥ 80%; pest or weed control at 200 ppm (Plasmopara viticola): ≥ 80%
Cc1nn(C)c2nccc(N3[C@@H]4CC[C@H]3CC(Oc3ccc(Cl)cc3)C4)c12 (stereo partly drawn),155,–,–,–
Cc1csc2c(N3[C@@H]4CC[C@H]3CC(Oc3cc(C(F)(F)F)ccn3)C4)ncnc12 (stereo partly drawn),76,–,–,–
CC1(C)COC2(CC3CCC(C2)N3c2ncnc3sccc23)O1 (stereo not drawn) [Example 6.2],–,≥ 80,≥ 80,pest or weed control at 200 ppm (Phytophthora infestans): ≥ 80%; pest or weed control at 200 ppm (Plasmopara viticola): ≥ 80%
Cc1noc2ncnc(N3[C@@H]4CC[C@H]3CC(Oc3cc(C(F)(F)F)ccn3)C4)c12 (stereo partly drawn),192,–,–,–
N#Cc1c(Cl)nsc1N1[C@@H]2CC[C@H]1CC(Oc1cc(C(F)(F)F)ccn1)C2 (stereo partly drawn) [Example 2.196],103,≥ 80,–,–
Cn1cc(C(=O)N2[C@@H]3CC[C@H]2CC(Oc2ccc(C(F)(F)F)cn2)C3)c(C(F)(F)F)c1 (stereo partly drawn) [2.223],153,–,–,–
N#Cc1c(Cl)nsc1N1[C@@H]2CC[C@H]1CC(Oc1cccc(C(F)(F)F)n1)C2 (stereo partly drawn),158,–,–,–
CCc1ncnc(N2[C@@H]3CC[C@H]2CC(ON)C3)c1Cl (stereo partly drawn),70,–,–,–
N#Cc1sc(N2[C@@H]3CC[C@H]2CC(Oc2cc(C(F)(F)F)ccn2)C3)nc1C(F)(F)F (stereo partly drawn),129,–,–,–
Cn1cc(C(=O)N2[C@@H]3CC[C@H]2CC(Oc2cc(C(F)(F)F)ccn2)C3)c(C(F)(F)F)c1 (stereo partly drawn),183,–,–,–
Fc1ccc(C(F)(F)F)cc1CON=C1CC2CCC(C1)N2c1ncnc2sccc12 [Example 5.238],–,≥ 80,≥ 80,pest or weed control at 200 ppm (Plutella xylostella): ≥ 80%; pest or weed control at 2 ppm (Aedes aegypti): ≥ 80%; pest or weed control at 200 ppm (Plasmopara viticola): ≥ 80%; pest or weed control at 200 ppm (Pyricularia oryzae; [3]): ≥ 60%
CCc1ncnc(N2C3CCC2CC(CC(=O)O)C3)c1Cl (stereo not drawn),109,–,–,–
Clc1ccccc1CON=C1CC2CCC(C1)N2c1ncnc2sccc12 [Example 5.141],–,≥ 80,≥ 80,pest or weed control at 200 ppm (Phytophthora infestans): ≥ 80%; pest or weed control at 200 ppm (Plutella xylostella): ≥ 80%; pest or weed control at 2 ppm (Aedes aegypti): ≥ 80%; pest or weed control at 200 ppm (Plasmopara viticola): ≥ 80%; pest or weed control at 200 ppm (Pyricularia oryzae; [3]): ≥ 60%
FC(F)(F)c1cccc(OC2C[C@H]3CC[C@@H](C2)N3c2cc(Cl)ncn2)n1 (stereo partly drawn) [Example 2.90],136,≥ 80,–,–
Clc1ccc(-c2nc(CON=C3CC4CCC(C3)N4c3ncnc4sccc34)cs2)cc1 [Example 5.255],–,≥ 80,≥ 80,pest or weed control at 200 ppm (Phytophthora infestans): ≥ 80%; pest or weed control at 2 ppm (Aedes aegypti): ≥ 80%; pest or weed control at 200 ppm (Plasmopara viticola): ≥ 80%
CCc1ncnc(C(C)c2ncnc(N3C4CCC3CC(=NO)C4)c2Cl)c1Cl (stereo not drawn) [Example 5.4],162,≥ 80,–,–
Cc1ccccc1CON=C1CC2CCC(C1)N2c1ncnc2sccc12 [Example 5.155],–,≥ 80,≥ 80,pest or weed control at 200 ppm (Plutella xylostella): ≥ 80%; pest or weed control at 2 ppm (Aedes aegypti): ≥ 80%; pest or weed control at 200 ppm (Plasmopara viticola): ≥ 80%; pest or weed control at 200 ppm (Pyricularia oryzae; [3]): ≥ 60%
CS(=O)(=O)OC1C[C@H]2CC[C@@H](C1)N2c1ncnc2sccc12 (stereo partly drawn) [Example 2.10],135,≥ 80,–,–
ClCC1COC2(CC3CCC(C2)N3c2ncnc3sccc23)O1 (stereo not drawn) [Example 6.8],–,≥ 80,≥ 80,pest or weed control at 2 ppm (Aedes aegypti): ≥ 80%; pest or weed control at 200 ppm (Plasmopara viticola): ≥ 80%
Cn1cc(C(=O)N2[C@@H]3CC[C@H]2CC(Oc2ccc(C(F)(F)F)cn2)C3)c(C(F)(F)F)c1 (stereo partly drawn) [2.218],147,–,–,–
